{"source": "patent US20260285850A1", "about": "“SUBSTITUTED OXAZOLIDINONES AND IMIDAZOLINONES AS HERBICIDES” (FMC CORPORATION, priority 2023, published 2026)", "type_in_all_cases": "in vivo", "key": {"[1]": {"system": "barnyardgrass (Echinochloa crus-galli)", "assay": "Test A preemergence soil spray, visual injury rating 0-100", "details": "1000 g ai/ha, 10 days, 0 = no effect, 100 = complete control", "how_it_was_run": "(§1)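 Rating: visual, day 10, untreated plants as reference, 0 no effect to 100 full control. Plants were in loam-sand and were treated either preemergence via directed soil spray or postemergence at the one- to two-leaf stage.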"}, "[2]": {"system": "blackgrass (Alopecurus myosuroides)", "assay": "Test A preemergence soil spray, visual injury rating 0-100", "details": "1000 g ai/ha, 10 days, 0 = no effect, 100 = complete control", "how_it_was_run": "as §1"}, "[3]": {"system": "foxtail, giant (giant foxtail, Setaria faberi)", "assay": "Test A preemergence soil spray, visual injury rating 0-100", "details": "1000 g ai/ha, 10 days, 0 = no effect, 100 = complete control", "how_it_was_run": "as §1"}, "kochia (Bassia scoparia) [4]": {"system": "kochia (Bassia scoparia)", "assay": "Test A preemergence soil spray, visual injury rating 0-100", "details": "1000 g ai/ha, 10 days, 0 = no effect, 100 = complete control", "how_it_was_run": "as §1"}, "[5]": {"system": "palmer (palmer amaranth, palmer pigweed, Amaranthus palmeri)", "assay": "Test A preemergence soil spray, visual injury rating 0-100", "details": "1000 g ai/ha, 10 days, 0 = no effect, 100 = complete control", "how_it_was_run": "as §1"}, "[6]": {"system": "ragweed (common ragweed, Ambrosia artemisiifolia)", "assay": "Test A preemergence soil spray, visual injury rating 0-100", "details": "1000 g ai/ha, 10 days, 0 = no effect, 100 = complete control", "how_it_was_run": "as §1"}, "[7]": {"system": "ryegrass, Italian (italian ryegrass, Lolium multiflorum)", "assay": "Test A preemergence soil spray, visual injury rating 0-100", "details": "1000 g ai/ha, 10 days, 0 = no effect, 100 = complete control", "how_it_was_run": "as §1"}, "[8]": {"system": "barnyardgrass (Echinochloa crus-galli)", "assay": "Test A postemergence application, visual injury rating 0-100", "details": "Postemergence, 1000 g ai/ha, 0 to 100 scale, 10 days", "how_it_was_run": "as §1"}, "[9]": {"system": "blackgrass (Alopecurus myosuroides)", "assay": "Test A postemergence application, visual injury rating 0-100", "details": "Postemergence, 1000 g ai/ha, 0 to 100 scale, 10 days", "how_it_was_run": "as §1"}, "[10]": {"system": "foxtail, giant (giant foxtail, Setaria faberi)", "assay": "Test A postemergence application, visual injury rating 0-100", "details": "1000 g ai/ha, 0 to 100 scale, 10 days", "how_it_was_run": "as §1"}, "[11]": {"system": "galium (catchweed bedstraw, Galium aparine)", "assay": "Test A postemergence application, visual injury rating 0-100", "details": "Postemergence, 1000 g ai/ha, 0 to 100 scale, 10 days", "how_it_was_run": "as §1"}, "[12]": {"system": "horseweed (Erigeron canadensis)", "assay": "Test A postemergence application, visual injury rating 0-100", "details": "Postemergence, 1000 g ai/ha, 0 to 100 scale, 10 days", "how_it_was_run": "as §1"}, "kochia (Bassia scoparia) [13]": {"system": "kochia (Bassia scoparia)", "assay": "Test A postemergence application, visual injury rating 0-100", "details": "Postemergence, 1000 g ai/ha, 0 to 100 scale, 10 days", "how_it_was_run": "as §1"}, "[14]": {"system": "palmer (palmer amaranth, palmer pigweed, Amaranthus palmeri)", "assay": "Test A postemergence application, visual injury rating 0-100", "details": "Postemergence, 1000 g ai/ha, 0 to 100 scale, 10 days", "how_it_was_run": "as §1"}, "[15]": {"system": "ragweed (common ragweed, Ambrosia artemisiifolia)", "assay": "Test A postemergence application, visual injury rating 0-100", "details": "Postemergence, 1000 g ai/ha, 0 to 100 scale, 10 days", "how_it_was_run": "as §1"}, "[16]": {"system": "ryegrass, Italian (italian ryegrass, Lolium multiflorum)", "assay": "Test A postemergence application, visual injury rating 0-100", "details": "Postemergence, 1000 g ai/ha, 0 to 100 scale, 10 days", "how_it_was_run": "as §1"}, "[17]": {"system": "barnyardgrass (Echinochloa crusgalli)", "assay": "Test B flooded paddy test, visual plant response rating 0-100", "details": "250 g ai/ha, Flood, applied to paddy water, evaluated after 13 days", "how_it_was_run": "(§2)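 Each species was raised to two leaves before flooding to a 3 cm depth and dosing the water with compound. Injury was assessed by eye after 13 days under greenhouse conditions.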"}, "[18]": {"system": "ducksalad (Heteranthera limosa)", "assay": "Test B flooded paddy test, visual plant response rating 0-100", "details": "250 g ai/ha, Flood, applied to paddy water, evaluated after 13 days", "how_it_was_run": "as §2"}, "rice (Oryza sativa)": {"system": "rice (Oryza sativa)", "assay": "Test B flooded paddy test, visual plant response rating 0-100", "details": "250 g ai/ha, Flood, applied to paddy water, evaluated after 13 days", "how_it_was_run": "as §2"}, "[19]": {"system": "sedge, umbrella (small-flower umbrella sedge, Cyperus difformis)", "assay": "Test B flooded paddy test, visual plant response rating 0-100", "details": "250 g ai/ha, Flood, applied to paddy water, evaluated after 13 days", "how_it_was_run": "as §2"}}}
{"smiles": "CC(C)OC(=O)C1C=CC(NC(=O)C2(C)CN(c3cc(F)cc(F)c3)C(=O)O2)C1", "note": "(stereo not shown) [Compound 52]", "values": [{"measurement": "Barnyardgrass plant response rating (0 to 100 scale)", "setting": "[1]", "result": 100}, {"measurement": "Blackgrass plant response rating (0 to 100 scale)", "setting": "[2]", "result": 90}, {"measurement": "Foxtail, Giant plant response rating (0 to 100 scale)", "setting": "[3]", "result": 100}, {"measurement": "Kochia plant response rating (0 to 100 scale)", "setting": "kochia (Bassia scoparia) [4]", "result": 100}, {"measurement": "Amaranth, Palmer / Pigweed, Palmer plant response rating (0 to 100 scale)", "setting": "[5]", "result": 100}, {"measurement": "Ragweed plant response rating (0 to 100 scale)", "setting": "[6]", "result": 90}, {"measurement": "Ryegrass, Italian plant response rating (0 to 100 scale)", "setting": "[7]", "result": 100}, {"measurement": "Barnyardgrass plant response rating", "setting": "[8]", "result": 100}, {"measurement": "Blackgrass plant response rating", "setting": "[9]", "result": 90}, {"measurement": "Foxtail, Giant plant response rating", "setting": "[10]", "result": 90}, {"measurement": "Galium plant response rating", "setting": "[11]", "result": 80}, {"measurement": "Horseweed plant response rating", "setting": "[12]", "result": 100}, {"measurement": "Kochia plant response rating", "setting": "kochia (Bassia scoparia) [13]", "result": 70}, {"measurement": "Amaranth, Palmer plant response rating", "setting": "[14]", "result": 90}, {"measurement": "Ragweed plant response rating", "setting": "[15]", "result": 70}, {"measurement": "Ryegrass, Italian plant response rating", "setting": "[16]", "result": 60}, {"measurement": "Plant response rating, Barnyardgrass (0 to 100 scale, 0 is no effect and 100 is complete control)", "setting": "[17]", "result": 75}, {"measurement": "Plant response rating, Ducksalad (0 to 100 scale, 0 is no effect and 100 is complete control)", "setting": "[18]", "result": 60}, {"measurement": "Plant response rating, Rice (0 to 100 scale, 0 is no effect and 100 is complete control)", "setting": "rice (Oryza sativa)", "result": 65}, {"measurement": "Plant response rating, Sedge, Umbrella (0 to 100 scale, 0 is no effect and 100 is complete control)", "setting": "[19]", "result": 90}]}
{"smiles": "CCCS(=O)(=O)NC(=O)C1C=CC(NC(=O)C2(C)CN(c3cc(F)cc(F)c3)C(=O)O2)C1", "note": "(stereo not shown) [Compound 50]", "values": [{"measurement": "Barnyardgrass plant response rating (0 to 100 scale)", "setting": "[1]", "result": 90}, {"measurement": "Blackgrass plant response rating (0 to 100 scale)", "setting": "[2]", "result": 90}, {"measurement": "Foxtail, Giant plant response rating (0 to 100 scale)", "setting": "[3]", "result": 90}, {"measurement": "Kochia plant response rating (0 to 100 scale)", "setting": "kochia (Bassia scoparia) [4]", "result": 100}, {"measurement": "Amaranth, Palmer / Pigweed, Palmer plant response rating (0 to 100 scale)", "setting": "[5]", "result": 100}, {"measurement": "Ragweed plant response rating (0 to 100 scale)", "setting": "[6]", "result": 50}, {"measurement": "Ryegrass, Italian plant response rating (0 to 100 scale)", "setting": "[7]", "result": 100}, {"measurement": "Barnyardgrass plant response rating", "setting": "[8]", "result": 90}, {"measurement": "Blackgrass plant response rating", "setting": "[9]", "result": 90}, {"measurement": "Foxtail, Giant plant response rating", "setting": "[10]", "result": 90}, {"measurement": "Galium plant response rating", "setting": "[11]", "result": 80}, {"measurement": "Horseweed plant response rating", "setting": "[12]", "result": 70}, {"measurement": "Kochia plant response rating", "setting": "kochia (Bassia scoparia) [13]", "result": 70}, {"measurement": "Amaranth, Palmer plant response rating", "setting": "[14]", "result": 90}, {"measurement": "Ragweed plant response rating", "setting": "[15]", "result": 70}, {"measurement": "Ryegrass, Italian plant response rating", "setting": "[16]", "result": 100}, {"measurement": "Plant response rating, Barnyardgrass (0 to 100 scale, 0 is no effect and 100 is complete control)", "setting": "[17]", "result": 60}, {"measurement": "Plant response rating, Ducksalad (0 to 100 scale, 0 is no effect and 100 is complete control)", "setting": "[18]", "result": 70}, {"measurement": "Plant response rating, Rice (0 to 100 scale, 0 is no effect and 100 is complete control)", "setting": "rice (Oryza sativa)", "result": 75}, {"measurement": "Plant response rating, Sedge, Umbrella (0 to 100 scale, 0 is no effect and 100 is complete control)", "setting": "[19]", "result": 60}]}
